pIC50, pKi: −log10 of the molar value. Converted amounts (≈) assume the structure as drawn.
How the values were obtained:
[1] = biological target: T1, Sodium-dependent noradrenaline transporter (Homo sapiens, UniProt P23975); assay: Displacement of […] from NET (unknown origin) expressed in HEK cell membrane incubated for 2 hrs by liquid scintillation counter analysis
[2] = biological target: T2, Sodium-dependent serotonin transporter (Homo sapiens, UniProt P31645); assay: biochemical; format: cell-based, HEK
T2 sequence (P31645 whole entry): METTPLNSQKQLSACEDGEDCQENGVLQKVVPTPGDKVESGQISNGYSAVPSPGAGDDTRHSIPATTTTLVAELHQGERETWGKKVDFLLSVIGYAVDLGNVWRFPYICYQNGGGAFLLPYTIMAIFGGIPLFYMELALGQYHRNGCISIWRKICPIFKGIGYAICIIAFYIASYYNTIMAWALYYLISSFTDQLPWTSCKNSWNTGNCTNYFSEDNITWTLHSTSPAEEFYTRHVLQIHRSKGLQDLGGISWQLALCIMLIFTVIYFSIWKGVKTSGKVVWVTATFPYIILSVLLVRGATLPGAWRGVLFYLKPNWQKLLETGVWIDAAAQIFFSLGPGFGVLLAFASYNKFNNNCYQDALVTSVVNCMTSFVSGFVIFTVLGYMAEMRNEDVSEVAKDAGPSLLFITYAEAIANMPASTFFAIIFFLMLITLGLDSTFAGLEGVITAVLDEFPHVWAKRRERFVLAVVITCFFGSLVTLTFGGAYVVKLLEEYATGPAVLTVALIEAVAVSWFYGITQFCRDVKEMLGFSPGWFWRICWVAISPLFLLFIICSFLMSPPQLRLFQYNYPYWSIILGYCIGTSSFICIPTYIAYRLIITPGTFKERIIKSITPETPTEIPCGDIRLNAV
Description: Displacement of [3H]-Citalopram from SERT receptor (unknown origin) expressed in HEK cell membrane incubated for 2 hrs by liquid scintillation counter analysis

[3] = biological target: Glutamate [NMDA] receptor; assay: Displacement of […] from NMDA receptor (unknown origin) expressed in HEK cell membrane incubated for 2 hrs by liquid scintillation counter analysis
[4] = biological target: Sigma intracellular receptor 2 (Homo sapiens, UniProt Q5BJF2); assay: Displacement of […] from sigma-2 receptor (unknown origin) expressed in HEK cell membrane incubated for 2 hrs by liquid scintillation counter analysis
Chain of Sigma intracellular receptor 2 (Q5BJF2 whole entry): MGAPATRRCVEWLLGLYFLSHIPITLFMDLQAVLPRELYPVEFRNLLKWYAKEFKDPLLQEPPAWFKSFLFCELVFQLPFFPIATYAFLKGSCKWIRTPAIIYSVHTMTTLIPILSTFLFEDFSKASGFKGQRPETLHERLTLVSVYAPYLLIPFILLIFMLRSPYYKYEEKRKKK

[5] = biological target: Sigma non-opioid intracellular receptor 1 (Homo sapiens, UniProt Q99720); assay: Displacement of […] from sigma-1 receptor (unknown origin) expressed in HEK cell membrane incubated for 2 hrs by liquid scintillation counter analysis
Chain of Sigma non-opioid intracellular receptor 1 (Q99720 whole entry): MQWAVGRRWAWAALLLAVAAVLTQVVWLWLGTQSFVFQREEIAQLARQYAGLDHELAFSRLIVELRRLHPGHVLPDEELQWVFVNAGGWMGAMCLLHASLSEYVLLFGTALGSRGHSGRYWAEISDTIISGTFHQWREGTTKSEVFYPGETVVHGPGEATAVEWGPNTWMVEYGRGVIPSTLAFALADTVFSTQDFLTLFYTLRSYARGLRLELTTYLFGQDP

[6] = Aqueous solubility of compound in universal buffer at pH 7.4 at 100 uM incubated for 1.5 hrs under shaking condition by LC-MS/MS analysis; format: physicochemical
[7] = Aqueous solubility of compound in universal buffer at pH 3 at 100 uM incubated for 1.5 hrs under shaking condition by LC-MS/MS analysis; format: physicochemical
[8] = Stability in human liver microsomes assessed as half life at 10 uM measured upto 120 mins by LC-MS/MS analysis; format: ADME, Microsome
[9] = Efflux ratio of apparent permeability across basolateral to apical side over apical to basolateral side in dog MDCK-MDR1 cells measured after 30 to 120 mins by LC-MS analysis; format: ADME, cell-based, Canis lupus familiaris; settings: time 30-120 min
in vitro [10] = settings: human, liver microsomes
in vitro [11] = settings: dog, MDCK-MDR1
Description: Apparent permeability in dog MDCK-MDR1 cells from apical to basal side measured after 30 to 120 mins by LC-MS analysis

in vitro [12] = settings: dog, MDCK-MDR1; remark: listed apart in the source
Description: Apparent permeability in dog MDCK-MDR1 cells from basal to apical side measured after 30 to 120 mins by LC-MS analysis

[13] = Cmax in Sprague-Dawley rat plasma at 2.5 mg/kg, po measured after 24 hrs by LC-MS/MS analysis; format: ADME, organism-based; design: route oral, dose 2.5 mg/kg, time 24 hrs
[14] = Cmax in Sprague-Dawley rat brain at 2.5 mg/kg, po measured after 24 hrs by LC-MS/MS analysis; format: ADME, organism-based; design: route oral, time 24 hrs, dose 2.5 mg/kg
[15] = AUC in Sprague-Dawley rat plasma at 2.5 mg/kg, po measured after 24 hrs by LC-MS/MS analysis; format: ADME, organism-based; design: route oral, time 24 hrs, dose 2.5 mg/kg
[16] = AUC in Sprague-Dawley rat brain at 2.5 mg/kg, po measured after 24 hrs by LC-MS/MS analysis; format: ADME, organism-based; design: route oral, time 24 hrs, dose 2.5 mg/kg
[17] = Protein binding in Sprague-Dawley rat plasma assessed as unbound fraction at 20 uM by NMR analysis; format: ADME, cell-free
[18] = Protein binding in Sprague-Dawley rat brain plasma assessed as unbound fraction at 5 uM measured after 4 hrs by LC-MS analysis; format: ADME, tissue-based
[19] = Unbound brain-to-plasma concentration ratio in Sprague-Dawley rat; format: ADME, cell-free; settings: read-out: K(p,uu,brain)
[20] = Volume of distribution in Sprague-Dawley rat at 2.5 mg/kg, po measured after 24 hrs by LC-MS/MS analysis; format: ADME, organism-based; settings: in vivo
[21] = Clearance in Sprague-Dawley rat plasma at 2.5 mg/kg, po measured after 24 hrs by LC-MS/MS analysis; format: ADME, organism-based
[22] = Half life in Sprague-Dawley rat plasma at 2.5 mg/kg, po measured after 24 hrs by LC-MS/MS analysis; format: ADME, organism-based
[23] = Half life in Sprague-Dawley rat brain at 2.5 mg/kg, po measured after 24 hrs by LC-MS/MS analysis; format: ADME, organism-based
[24] = biological target: T2, Sodium-dependent serotonin transporter; format: cell-based, HEK293
[25] = biological target: T1, Sodium-dependent noradrenaline transporter; assay: Inhibition of human NET expressed in human HEK293 cells assessed as inhibition of substrate transport measured after 1 hr by flourescence based plate reader assay; format: cell-based
hERG (KCNH2) = hERG (KCNH2) (Homo sapiens, UniProt Q12809); assay: Inhibition of human ERG at 10 uM measured after 15 mins by plate reader method relative to control; format: toxicity
Chain of hERG (KCNH2) (Q12809 whole entry): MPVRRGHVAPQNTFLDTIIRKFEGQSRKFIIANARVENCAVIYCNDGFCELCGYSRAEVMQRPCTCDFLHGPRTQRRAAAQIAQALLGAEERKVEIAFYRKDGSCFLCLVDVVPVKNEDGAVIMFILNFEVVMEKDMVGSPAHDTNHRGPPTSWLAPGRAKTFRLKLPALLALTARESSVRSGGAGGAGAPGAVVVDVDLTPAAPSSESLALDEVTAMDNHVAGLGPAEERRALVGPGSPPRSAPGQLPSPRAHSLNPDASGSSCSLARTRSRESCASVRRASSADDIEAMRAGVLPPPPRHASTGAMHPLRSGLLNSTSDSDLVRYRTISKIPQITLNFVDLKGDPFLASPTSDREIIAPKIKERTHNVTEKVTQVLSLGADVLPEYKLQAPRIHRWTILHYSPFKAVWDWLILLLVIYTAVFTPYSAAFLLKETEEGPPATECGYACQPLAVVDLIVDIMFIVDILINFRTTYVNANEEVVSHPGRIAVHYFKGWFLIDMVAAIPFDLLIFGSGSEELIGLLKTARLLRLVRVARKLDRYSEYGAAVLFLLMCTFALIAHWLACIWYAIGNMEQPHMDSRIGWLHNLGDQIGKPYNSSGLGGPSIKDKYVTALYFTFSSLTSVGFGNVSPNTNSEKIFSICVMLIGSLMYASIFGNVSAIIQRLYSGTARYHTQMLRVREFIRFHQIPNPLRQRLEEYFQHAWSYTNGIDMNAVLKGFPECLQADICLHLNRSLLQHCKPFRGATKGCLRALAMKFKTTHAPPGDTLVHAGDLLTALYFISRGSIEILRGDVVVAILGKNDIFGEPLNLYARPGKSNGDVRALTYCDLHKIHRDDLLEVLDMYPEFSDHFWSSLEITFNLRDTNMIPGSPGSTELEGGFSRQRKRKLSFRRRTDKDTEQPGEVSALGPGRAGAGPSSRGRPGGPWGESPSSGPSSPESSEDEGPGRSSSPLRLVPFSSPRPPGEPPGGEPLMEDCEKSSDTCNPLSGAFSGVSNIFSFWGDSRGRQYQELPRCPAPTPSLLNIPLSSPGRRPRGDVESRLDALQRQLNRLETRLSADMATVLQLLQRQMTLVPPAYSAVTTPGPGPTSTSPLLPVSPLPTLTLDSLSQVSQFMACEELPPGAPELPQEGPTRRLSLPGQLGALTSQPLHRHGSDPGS

T1 sequence (P23975 whole entry): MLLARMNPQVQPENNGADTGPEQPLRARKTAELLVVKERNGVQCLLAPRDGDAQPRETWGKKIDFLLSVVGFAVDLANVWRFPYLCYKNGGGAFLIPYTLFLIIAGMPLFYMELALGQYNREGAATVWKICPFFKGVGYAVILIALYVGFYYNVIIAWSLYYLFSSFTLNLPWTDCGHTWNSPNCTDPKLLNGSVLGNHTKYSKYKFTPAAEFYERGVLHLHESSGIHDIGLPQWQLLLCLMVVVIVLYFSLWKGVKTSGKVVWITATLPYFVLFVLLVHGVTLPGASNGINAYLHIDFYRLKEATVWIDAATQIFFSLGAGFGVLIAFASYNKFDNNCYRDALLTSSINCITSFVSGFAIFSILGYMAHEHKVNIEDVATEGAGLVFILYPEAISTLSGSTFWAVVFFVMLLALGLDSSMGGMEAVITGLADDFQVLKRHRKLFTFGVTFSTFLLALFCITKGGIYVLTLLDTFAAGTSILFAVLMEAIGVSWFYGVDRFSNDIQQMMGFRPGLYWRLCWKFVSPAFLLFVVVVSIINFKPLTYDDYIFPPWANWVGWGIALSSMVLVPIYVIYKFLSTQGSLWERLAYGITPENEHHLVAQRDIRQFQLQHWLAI

Structure (SMILES)	pKi [1]	pKi [2]	pKi [3]	pKi [4]	pKi [5]	solubility at 1.5 h, 100 µM [6] [µM]	solubility at 1.5 h, 100 µM [7] [µM]	half-life at 10 µM [8] [h]	efflux ratio [9]	CLint scaled at 2 h, 10 µM (in vitro [10]) [mL/min/kg]	Papp A→B (in vitro [11]) [×10⁻⁶ cm/s]	Papp B→A (in vitro [12]) [×10⁻⁶ cm/s]	pIC50 [24]	pIC50 [25]	inhibition at 0.25 h, 10 µM (hERG (KCNH2)) [%]	other results
CN1CC[C@@]23CCCC[C@@H]2[C@@H]1Cc1ccc(C(F)(F)C(F)(F)F)cc13	< 5.00	< 5.00	< 5.00	5.85	< 5.00	> 100	77 (≈ 27.7 µg/mL)	1.45	1	14.4	0.831	0.833	–	–	–	–
[2H]C([2H])([2H])N1CC[C@@]23CCCC[C@@H]2[C@@H]1Cc1ccc(C(F)F)cc13	–	–	–	–	–	94 (≈ 27.7 µg/mL)	70 (≈ 20.6 µg/mL)	2.03	–	10.2	–	–	–	–	–	Cmax [13]: 66 ng/mL; Cmax [14]: 854 ng/mL; AUC at 24 h [15]: 353 ng·h/mL; AUC at 24 h [16]: 4060 ng·h/mL; Cp(f) [17]: 28.8%; Cp(f) [18]: 9%; Kp uu at 20 µM [19]: 4.1; Vd [20]: 31 L/kg; CL/F [21]: 135 mL/min/kg; half-life [22]: 2.65 h; half-life [23]: 1.62 h
[2H]C([2H])([2H])N1CC[C@@]23CCCC[C@@H]2[C@@H]1Cc1ccc(C(F)(F)F)cc13	–	–	–	–	–	95 (≈ 29.7 µg/mL)	70 (≈ 21.9 µg/mL)	1.34	–	15.4	–	–	–	–	–	–
CN1CC[C@@]23CCCC[C@@H]2[C@@H]1Cc1ccc(C(F)F)cc13	7.46	7.29	< 5.00	6.45	6.84	> 100	> 100	4.05	0.81	5.13	1.35	1.1	7.62	6.03	12	Cmax [13]: 27 ng/mL; Cmax [14]: 674 ng/mL; AUC at 24 h [15]: 144 ng·h/mL; AUC at 24 h [16]: 4930 ng·h/mL; Kp uu at 20 µM [19]: 7.8; Vd [20]: 85 L/kg; CL/F [21]: 288 mL/min/kg; half-life [22]: 3.33 h; half-life [23]: 2.57 h
[2H]C([2H])([2H])N1CC[C@@]23CCCC[C@@H]2[C@@H]1Cc1ccc(C(C)(F)F)cc13	–	–	–	–	–	95 (≈ 29.3 µg/mL)	67 (≈ 20.7 µg/mL)	5.38	–	5.39	–	–	–	–	–	–
CN1CC[C@@]23CCCC[C@@H]2[C@@H]1Cc1ccc(C(F)(F)F)cc13	< 5.00	6.90	< 5.00	6.05	6.09	> 100	77 (≈ 23.8 µg/mL)	3.2	0.75	6.48	1.22	0.915	7.22	5.98	5.1	–
CN1CC[C@@]23CCCC[C@@H]2[C@@H]1Cc1ccc(C(C)(F)F)cc13	< 5.00	6.52	< 5.00	6.08	6.17	> 100	90 (≈ 27.5 µg/mL)	2.47	1.09	8.42	0.763	0.833	–	–	–	–
CN1CC[C@@]23CCCC[C@@H]2[C@@H]1Cc1ccc(OC(F)F)cc13	< 5.00	6.73	< 5.00	5.89	6.25	> 100	76 (≈ 23.4 µg/mL)	4.22	0.77	4.94	1.28	0.979	7.26	< 5.00	34.9	–

Source: ChEMBL document CHEMBL5038679, “Fluoroalkylation of Dextromethorphan Improves CNS Exposure and Metabolic Stability” (ACS Med Chem Lett, 2022)
